In the oligonucleotide strings, read from the 5' end, every base follows the letter of its sugar. An asterisk marks phosphorothioate; unmarked linkages are phosphodiester. Other units and linkages are bracketed, terminal groups are in braces. A string of capitals states the bases alone. m = 2'-O-methyl

The target of the first data set is T1, human TLR7 (Homo sapiens, UniProt Q9NYK1).
T1 construct: HA; host or cells: 293XL-hTLR7-HA (HEK293)
T1 sequence (Q9NYK1 27-1049): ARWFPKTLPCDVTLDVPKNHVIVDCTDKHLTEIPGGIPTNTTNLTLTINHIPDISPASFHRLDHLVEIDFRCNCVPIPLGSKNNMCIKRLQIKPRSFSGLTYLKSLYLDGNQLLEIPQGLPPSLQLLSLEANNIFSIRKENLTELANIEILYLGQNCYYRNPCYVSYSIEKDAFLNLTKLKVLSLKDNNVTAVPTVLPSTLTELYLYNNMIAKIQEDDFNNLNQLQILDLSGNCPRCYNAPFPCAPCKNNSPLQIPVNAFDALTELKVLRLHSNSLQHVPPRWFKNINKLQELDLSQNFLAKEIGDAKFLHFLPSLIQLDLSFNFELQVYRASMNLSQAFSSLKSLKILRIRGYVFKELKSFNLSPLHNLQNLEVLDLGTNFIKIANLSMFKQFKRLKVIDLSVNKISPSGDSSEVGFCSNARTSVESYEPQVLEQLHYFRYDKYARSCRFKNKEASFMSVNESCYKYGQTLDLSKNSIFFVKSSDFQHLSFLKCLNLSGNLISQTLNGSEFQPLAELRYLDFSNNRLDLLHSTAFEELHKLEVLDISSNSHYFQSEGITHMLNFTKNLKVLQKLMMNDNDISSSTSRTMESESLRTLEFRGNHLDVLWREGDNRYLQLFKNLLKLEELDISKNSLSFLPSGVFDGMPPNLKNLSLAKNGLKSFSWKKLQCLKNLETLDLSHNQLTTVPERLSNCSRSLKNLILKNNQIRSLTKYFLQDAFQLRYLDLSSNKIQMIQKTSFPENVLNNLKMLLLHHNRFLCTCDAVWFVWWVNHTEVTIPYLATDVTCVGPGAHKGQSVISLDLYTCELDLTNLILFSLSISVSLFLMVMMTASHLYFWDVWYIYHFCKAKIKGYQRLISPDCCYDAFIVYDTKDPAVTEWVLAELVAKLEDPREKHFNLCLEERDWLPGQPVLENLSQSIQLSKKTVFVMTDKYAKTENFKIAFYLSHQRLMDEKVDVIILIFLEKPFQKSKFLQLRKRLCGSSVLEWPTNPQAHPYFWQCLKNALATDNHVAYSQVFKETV
The data set can be described thus: HEK-TLR7 NF-κB-luciferase reporter, R848 stimulation. The format is cell-based. The following applies: 3mer 2'OMe ASO at 400 nM; HEK-TLR7; value relative to Ligand only = 1.000, NT = 0.000. In general terms: Reporter assays use an easily measured gene product as a stand-in for the process of interest.
On to “mGmUmA (GUA; all 2'-O-methyl, backbone not given here; further chemistry not fully specified) [shortMut1-3b]”, for which the “TLR7 400 nM” value is listed as 0.702.
Same read-out and setting: in the case of “mGmUmC (mG*mU*mC) [GUC, 3-mer 2′OMe PS oligo]” it was 0.140.
On the same count and under the same terms, in the case of “mGmUmG (mG*mU*mG) [GUG, 3-mer 2′OMe PS oligo]” it was 0.449; in that of “mGmUmU (mG*mU*mU) [GUU, 3-mer 2′OMe PS oligo]”, 0.781; in that of “mUmCmA (mU*mC*mA) [UCA, 3-mer 2′OMe PS oligo]”, 1.122.
With mUmCmG (antisense mU*mC*mG) [660-3b], the “TLR7 400 nM” value is given as 0.979.
On the same count and under the same terms, under “mUmGmA (mU*mG*mA) [UGA, 3-mer 2′OMe PS oligo]” stands 1.126; under “mUmGmG (mU*mG*mG) [UGG, 3-mer 2′OMe PS oligo]”, 1.029.

The data set is the same for the next values; noted with them: 3mer 2'OMe ASO at 2 uM; HEK-TLR7; value relative to Ligand only = 1.000, NT = 0.000.
For “mGmUmA (GUA; all 2'-O-methyl, backbone not given here; further chemistry not fully specified) [shortMut1-3b]”, the “TLR7 2 uM” value is recorded as 0.239.
Turning to “mGmUmC (mG*mU*mC) [GUC, 3-mer 2′OMe PS oligo]”, the “TLR7 2 uM” value worked out at 0.017.
For the substance “mGmUmG (mG*mU*mG) [GUG, 3-mer 2′OMe PS oligo]”, the “TLR7 2 uM” value is reported as 0.072.
The same measure, in the same setting: under “mGmUmU (mG*mU*mU) [GUU, 3-mer 2′OMe PS oligo]” stands 0.119.
With “mUmCmA (mU*mC*mA) [UCA, 3-mer 2′OMe PS oligo]”, the “TLR7 2 uM” value turned out to be 0.819.
On the same count and under the same terms, under mUmCmG (antisense mU*mC*mG) [660-3b] stands 0.982; under “mUmGmA (mU*mG*mA) [UGA, 3-mer 2′OMe PS oligo]”, 0.831; under “mUmGmG (mU*mG*mG) [UGG, 3-mer 2′OMe PS oligo]”, 0.989.

The same data set, now with this note: HEK-TLR7; 400 nM and 2 μM 3-mer, ~30 min; R848 1 μg/ml.
With “mGmUmA (GUA; all 2'-O-methyl, backbone not given here; further chemistry not fully specified) [shortMut1-3b]”, the “inhibition of TLR7 by 3-mer 2′OMe oligos (in words)” value is listed as “inhibiting TLR7”.
Still for that read-out and setting: in the case of “mGmUmC (mG*mU*mC) [GUC, 3-mer 2′OMe PS oligo]” it was “most potent 3-mer inhibiting TLR7”.
Same read-out and setting: in the case of “mGmUmG (mG*mU*mG) [GUG, 3-mer 2′OMe PS oligo]” it was “inhibiting TLR7”; in that of “mGmUmU (mG*mU*mU) [GUU, 3-mer 2′OMe PS oligo]”, “inhibiting TLR7”.

The record behind these values is patent US20240384268A1, “Oligonucleotides” (Hudson Institute of Medical Research, priority 2021, published 2024).
